The numbers were not newly measured in patent US20150216903A1, “COMPOUNDS FOR IMPROVED VIRAL TRANSDUCTION” (BLUEBIRD BIO, INC., priority 2012, published 2015), which cites them from elsewhere.

One data set relates to HIV. Conditions: previous publications (Hayes 2002); cited from earlier work.
For data set [1] the following is noted: Raz, FEBS Letters 1972; cited from earlier work.

As for `CCCCC[C@H](O)/C=C/[C@H]1C=CC(=O)[C@@H]1C/C=C\CCCC(=O)O` [PGA2, prostaglandin A2], in the data set with HIV, the “effect on HIV replication” value is recorded as “inhibits HIV replication”. For the compound `CCCCC[C@H](O)/C=C/[C@H]1[C@H](O)CC(=O)[C@@H]1C/C=C\CCCC(=O)O` [PGE2, prostaglandin E2], in data set [1], the “conversion upon exposure to plasma” value is recorded as “rapidly converts to prostaglandin A2 (PGA2)”. The “effect on HIV replication” value in the data set on HIV is recorded as “antagonistic to HIV replication”.
